Results reported in patent US12083109B2, “Neurokinin antagonists and uses thereof” (California Institute of Technology, priority 2017, dated 2024).
Entries after “also recorded” stand apart in the source; their conditions may differ.

T1: Nk3R (Mus musculus, UniProt P47937)
T1 sequence (P47937 1-452): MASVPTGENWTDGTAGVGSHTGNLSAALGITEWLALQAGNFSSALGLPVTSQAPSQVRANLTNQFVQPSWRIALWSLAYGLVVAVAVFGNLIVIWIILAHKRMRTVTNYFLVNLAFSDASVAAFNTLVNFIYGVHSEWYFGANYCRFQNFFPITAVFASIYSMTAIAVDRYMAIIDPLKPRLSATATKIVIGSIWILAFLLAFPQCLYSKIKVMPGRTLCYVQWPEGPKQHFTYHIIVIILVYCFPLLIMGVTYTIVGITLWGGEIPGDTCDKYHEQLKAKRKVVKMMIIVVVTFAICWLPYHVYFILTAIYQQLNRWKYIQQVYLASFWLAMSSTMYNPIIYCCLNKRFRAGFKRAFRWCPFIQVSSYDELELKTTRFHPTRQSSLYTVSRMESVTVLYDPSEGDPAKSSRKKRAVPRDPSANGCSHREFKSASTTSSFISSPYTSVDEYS


How the values were obtained:
Nk3R = target: T1, Nk3R; assay: Looming disk assay (freezing, tail rattles, latency to orient), osanetant; format: in vivo; parameters: from tissue; host or cells: Living mice (wild-type C57Bl6/N males, Charles River); conditions: for SIS-induced increased tail rattling (looming disk assay) / SIS-induced persistent (post) freezing to looming disk: SIS mice; for SIS-induced increased tail rattling (looming disk assay): acute systemic osanetant; for acute (and thereby persistent) freezing to innate threatening stimulus (looming disk): osanetant injection into CeA
Procedure: Freezing behavior to presentation of an overhead looming disk proceeded as previously described (Kunwar et al., 2015; Yilmaz and Meister, 2013; incorporated by reference in their entirety). Briefly, mice were transported to a novel behavioral testing room. After 5 minutes of acclimation, mice were placed inside a novel, custom-built open top Plexiglas arena (48×48×30 cm) covered with a flat screen monitor placed directly above and with illumination provided by infrared LEDs (Marubeni). Mice were given a 5 minute baseline period in the arena, after which entry into the center of the arena triggered presentation of a single, 10 second overhead looming disk stimulus (comprised of a single looming disk presentation 0.5 seconds in duration, which was repeated 10 times with an inter-stimulus interval of 0.5 seconds). The stimulus was controlled by custom MATLAB code (M. Meister, Caltech) run on a dedicated computer in an adjacent room. Mice remained in the area for an additional 2 minutes before being transported back. Behavior was recorded using a video recorder attached to a laptop equipped with video capture software (Corel VideoStudio Pro). Acute freezing behavior to the looming disk (“during”) as well as in the 30 seconds following the last disk (“post”) were scored manually (Behavior Annotator, MATLAB) by an observer blind to environmental conditions.
Mice were administered the Nk3R antagonist osanetant (Axon Medchem, Axon 1533) either systemically or intra-brain region. Osanctant was dissolved in saline with 0.1% Tween 20 (vehicle). For systemic administration mice received an intraperitoneal (i.p.) injection (5 mg/kg) 20 minutes prior to behavioral testing. For microinfusions, guide cannulas were removed from mice and replaced with injector cannulas (Plastics One), which protruded 0.5 mm from the tip of the guide cannula. Injectors were attached to 5 μl Hamilton syringes with PE tubing (Plastics One) and mounted on a microinfusion pump (Harvard Apparatus) for controlled infusion of osanetant (0.3 μl vehicle with 375 ng dose per site injected over 6 minutes). For experiments using systemic administration of clozapine-N-oxide (CNO), CNO (Enzo Life Sciences-Biomol, BML-NS105-0005) was dissolved in saline (9 g/L NaCl) and injected (i.p.) at 5 mg/kg for hM4DREADD silencing or 2 mg/kg for hM3DREADD activation 20 minutes prior to behavioral testing. CNO was also administered chronically in drinking water (0.5 mg CNO/100 ml water).

Tac2 = assay: Looming disk assay, Tac2 shRNA knockdown; format: in vivo, mouse; conditions: SIS mice
Description: Small hairpin RNA (shRNA) for the mouse Tac2 gene (NM_009312.2) were designed using the online designing tool siDirect 2.0 (http://sidirect2.mai.jp/) (Naito et al., 2009; incorporated by reference in its entirety).
8-16 week old mice were anesthetized with isoflurane and mounted in a stereotaxic apparatus (Kopf Instruments). Anesthesia was maintained throughout surgery at 1-1.5% isoflurane. The skull was exposed and small burr holes produced dorsal to each injection site using a stereotaxic mounted drill. Virus was backfilled into pulled fine glass capillaries (˜50 μm diameter at tip) and pressure injections of 300 nl were made bilaterally into either the dBNSTa (AP +0.25, ML ±0.85, DV −4.1), DMH (AP −1.3, ML±0.35, DV −5.6), or CeA (AP −1.4, ML ±2.6, DV −4.73) at a rate of 30nl per minute using a nanoliter injector (Nanoliter 2000, World Precision Instruments) controlled by an ultra microsyringe pump (Micro4, World Precision Instruments). Capillaries remained in place for 5 minutes following injections to allow for full diffusion of virus and to reduce backflow up the injection tract. Skin above the skull was then drawn together and sealed with GLUture (Zoetis). For bilateral cannula implantations, single or double guide cannulas (custom, Plastics One) aimed 0.5 mm above each region were implanted and held in place with dental cement (Parkell). Compatible dummy cannulas with a 0.5 mm protrusion at the tip were inserted to prevent cannula clogging. Directly following surgery, mice were given a subcutaneous injection of ketoprofen (2 mg/kg) and supplied with drinking water containing 400 mg/L sulphamethoxazole and 200 mg/L ibuprofen and monitored for 7 days. Dummies were replaced every 2-3 days to keep cannula tracts clean. All injections were subsequently verified histologically.
Freezing behavior to presentation of an overhead looming disk proceeded as previously described (Kunwar et al., 2015; Yilmaz and Meister, 2013; incorporated by reference in their entirety). Briefly, mice were transported to a novel behavioral testing room. […] Behavior was recorded using a video recorder attached to a laptop equipped with video capture software (Corel VideoStudio Pro). Acute freezing behavior to the looming disk (“during”) as well as in the 30 seconds following the last disk (“post”) were scored manually (Behavior Annotator, MATLAB) by an observer blind to environmental conditions.
To further investigate a role for local Tac2 release in mediating different effects of SIS, we asked next whether Tac2 synthesis played a role in each of the three brain regions studied, via targeted shRNAi-mediated knockdown of Tac2. […] Injections were histologically verified by zsGreen fluorescence. […]

| SIS-induced increased tail rattling (looming disk assay) (Nk3R) | SIS-induced increased tail rattling (looming disk assay) (Nk3R; listed as Osanetant) | SIS-induced persistent (post) freezing to looming disk (Nk3R; osanetant 5 mg/kg i.p. 20 min before test) | SIS-induced persistent (post) freezing to looming disk (Nk3R; osanetant 5 mg/kg i.p. 20 min before test, listed as Osanetant) | freezing during presentation of looming disk (acute) (Nk3R; osanetant 5 mg/kg i.p. 20 min before test, between groups) | persistent freezing to looming disk (Nk3R; osanetant daily during two-week isolation, tested off-drug) | acute (and thereby persistent) freezing to innate threatening stimulus (looming disk) (Nk3R) | acute (and thereby persistent) freezing to innate threatening stimulus (looming disk) (Nk3R; listed as Osanetant) | persistent responses to looming stimulus (Nk3R; osanetant microinfusion into DMH) | SIS-induced persistent freezing to looming disk (Nk3R; osanetant microinfusion into dBNSTa, 375 ng per site, 20 min before test) | SIS-induced persistent freezing to looming disk (Nk3R; osanetant microinfusion into dBNSTa, 375 ng per site, 20 min before test, listed as Osanetant) | Molecule | SIS-induced persistent freezing to looming disk (Nk3R; osanetant microinfusion into ACC or striatum) | freezing to looming disk (acute, during stimulus) (Tac2; AAV shRNA in CeA) | acute (during) freezing to looming disk (Tac2; AAV shRNA in dBNSTa) | persistent (post) freezing to looming disk (Tac2; AAV shRNA in dBNSTa) |
| --- | --- | --- | --- | --- | --- | --- | --- | --- | --- | --- | --- | --- | --- | --- | --- |
| attenuated | blocked | blocked | attenuated | no significant differences | prevented | reduced | selectively blocked | had no effect | selectively inhibited | selectively blocked | CC(=O)N(C)C1(c2ccccc2)CCN(CCC[C@]2(c3ccc(Cl)c(Cl)c3)CCCN(C(=O)c3ccccc3)C2)CC1 [osanetant, N-(1-{3-[(3R)-1-benzoyl-3-(3,4-dichlorophenyl)piperidin-3-yl]propyl}-4-phenylpiperidin-4-yl)-N-methylacetamide] | failed to yield significant effects; also recorded: No significant effects |  |  |  |
|  |  |  |  |  |  |  |  |  |  |  | shRNA-1: small hairpin RNA for mouse Tac2 gene (SEQ ID NO: 9, 10), expressed from AAV5-H1-shRNA-CMV-zsGreen (nucleic acid) chain 1: CCGACGTGGTTGAAGAGAACACCGCTTCCTGTCACGGTGTTCTCTTCAACCACGTCTTTTTT chain 2: AAAAAAGACGTGGTTGAAGAGAACACCGTGACAGGAAGCGGTGTTCTCTTCAACCACGTCGG |  | blocked | had no effect | blocked; also recorded: strongly reduced |
|  |  |  |  |  |  |  |  |  |  |  | shRNA-2: small hairpin RNA for mouse Tac2 gene (SEQ ID NO: 11, 12), expressed from AAV5-H1-shRNA-CMV-zsGreen (nucleic acid) chain 1: CCGCCTCAACCCCATAGCAATTAGCTTCCTGTCACTAATTGCTATGGGGTTGAGGCTTTTTT chain 2: AAAAAAGCCTCAACCCCATAGCAATTAGTGACAGGAAGCTAATTGCTATGGGGTTGAGGCGG |  |  | additionally reduced; also recorded: significantly reduced |  |
